Here are results for two compounds from ChEMBL document CHEMBL5653615 (J Biol Chem, 2013).

Experiment [1] addresses T1, cAMP-dependent protein kinase catalytic subunit PRKX (Homo sapiens) (UniProt P51817).
T1 sequence (whole entry): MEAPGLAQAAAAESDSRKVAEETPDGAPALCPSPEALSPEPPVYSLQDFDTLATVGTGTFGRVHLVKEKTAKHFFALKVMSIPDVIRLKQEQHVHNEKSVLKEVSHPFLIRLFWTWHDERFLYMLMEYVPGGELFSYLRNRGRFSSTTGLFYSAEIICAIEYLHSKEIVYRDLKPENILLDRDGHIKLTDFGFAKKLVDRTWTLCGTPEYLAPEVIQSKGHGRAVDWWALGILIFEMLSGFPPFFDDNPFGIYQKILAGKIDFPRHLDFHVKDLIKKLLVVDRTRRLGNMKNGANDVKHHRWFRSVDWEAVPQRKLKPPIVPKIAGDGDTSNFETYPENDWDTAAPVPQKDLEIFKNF
The experiment can be described thus: Inhibition of human PRKX at 18.6 nM by HotSpot assay relative to control.

Experiment [2] addresses T2, cGMP-dependent protein kinase 1 (Homo sapiens) (UniProt Q13976).
T2 sequence (whole entry): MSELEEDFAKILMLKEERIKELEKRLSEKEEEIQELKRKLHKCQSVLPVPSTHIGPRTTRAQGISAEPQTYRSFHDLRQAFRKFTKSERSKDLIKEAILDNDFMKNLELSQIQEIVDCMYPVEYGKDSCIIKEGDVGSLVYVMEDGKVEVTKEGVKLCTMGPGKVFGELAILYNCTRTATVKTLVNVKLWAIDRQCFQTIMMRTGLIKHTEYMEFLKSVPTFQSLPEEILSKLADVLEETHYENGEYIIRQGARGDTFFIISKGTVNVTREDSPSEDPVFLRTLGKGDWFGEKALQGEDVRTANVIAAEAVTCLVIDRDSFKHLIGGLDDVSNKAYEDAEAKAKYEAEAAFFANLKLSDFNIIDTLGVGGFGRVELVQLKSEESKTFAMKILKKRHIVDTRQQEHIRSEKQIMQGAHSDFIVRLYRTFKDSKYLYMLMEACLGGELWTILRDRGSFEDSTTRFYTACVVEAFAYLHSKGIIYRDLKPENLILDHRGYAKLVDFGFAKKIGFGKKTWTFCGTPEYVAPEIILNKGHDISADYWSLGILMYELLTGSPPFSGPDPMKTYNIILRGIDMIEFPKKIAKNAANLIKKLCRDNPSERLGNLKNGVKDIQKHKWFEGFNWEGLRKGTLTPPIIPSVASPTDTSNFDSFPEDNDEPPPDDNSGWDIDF
The experiment can be described thus: Inhibition of human PKG1a at 18.6 nM by HotSpot assay relative to control.

For experiment [3], the target named is Receptor tyrosine-protein kinase erbB-4 (Homo sapiens) (UniProt Q15303). The experiment can be described thus: Inhibition of human ERBB4 at 1.82 nM by HotSpot assay relative to control.
The target of experiment [4] is T3, Tyrosine-protein kinase JAK3 (Homo sapiens) (UniProt P52333).
T3 sequence (whole entry): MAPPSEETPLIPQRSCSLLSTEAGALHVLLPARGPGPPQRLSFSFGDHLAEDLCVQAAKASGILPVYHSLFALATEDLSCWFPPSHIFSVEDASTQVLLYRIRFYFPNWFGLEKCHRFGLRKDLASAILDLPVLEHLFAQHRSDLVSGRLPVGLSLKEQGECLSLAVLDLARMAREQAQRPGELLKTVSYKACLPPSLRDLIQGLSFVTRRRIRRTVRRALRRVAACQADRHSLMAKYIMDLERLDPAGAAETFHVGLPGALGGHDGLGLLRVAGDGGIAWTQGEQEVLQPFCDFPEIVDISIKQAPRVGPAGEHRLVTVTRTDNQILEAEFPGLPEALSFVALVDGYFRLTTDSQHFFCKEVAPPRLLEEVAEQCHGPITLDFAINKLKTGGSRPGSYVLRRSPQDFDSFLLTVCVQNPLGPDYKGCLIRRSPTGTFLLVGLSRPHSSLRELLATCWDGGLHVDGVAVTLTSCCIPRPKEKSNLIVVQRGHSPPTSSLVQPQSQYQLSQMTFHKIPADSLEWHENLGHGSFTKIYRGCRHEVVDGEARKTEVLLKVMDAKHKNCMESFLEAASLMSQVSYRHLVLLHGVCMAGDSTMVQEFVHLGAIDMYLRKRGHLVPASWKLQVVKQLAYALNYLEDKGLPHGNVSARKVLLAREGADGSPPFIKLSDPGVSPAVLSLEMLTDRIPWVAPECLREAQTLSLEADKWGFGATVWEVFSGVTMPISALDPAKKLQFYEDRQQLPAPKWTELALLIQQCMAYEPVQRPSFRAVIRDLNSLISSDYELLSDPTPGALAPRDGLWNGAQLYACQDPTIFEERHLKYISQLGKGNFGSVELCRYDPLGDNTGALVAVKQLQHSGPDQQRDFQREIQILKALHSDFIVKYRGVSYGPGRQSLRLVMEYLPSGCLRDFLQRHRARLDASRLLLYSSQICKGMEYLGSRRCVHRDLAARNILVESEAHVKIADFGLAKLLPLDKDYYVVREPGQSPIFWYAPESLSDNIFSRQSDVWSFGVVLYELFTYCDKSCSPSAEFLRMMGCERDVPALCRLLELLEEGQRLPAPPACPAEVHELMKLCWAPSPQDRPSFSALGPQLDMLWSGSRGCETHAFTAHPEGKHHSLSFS
The experiment can be described thus: Inhibition of human JAK3 at 1.82 nM by HotSpot assay relative to control.

Experiment [5] deals with T4, Dual specificity tyrosine-phosphorylation-regulated kinase 2 (Homo sapiens) (UniProt Q92630).
T4 sequence (whole entry): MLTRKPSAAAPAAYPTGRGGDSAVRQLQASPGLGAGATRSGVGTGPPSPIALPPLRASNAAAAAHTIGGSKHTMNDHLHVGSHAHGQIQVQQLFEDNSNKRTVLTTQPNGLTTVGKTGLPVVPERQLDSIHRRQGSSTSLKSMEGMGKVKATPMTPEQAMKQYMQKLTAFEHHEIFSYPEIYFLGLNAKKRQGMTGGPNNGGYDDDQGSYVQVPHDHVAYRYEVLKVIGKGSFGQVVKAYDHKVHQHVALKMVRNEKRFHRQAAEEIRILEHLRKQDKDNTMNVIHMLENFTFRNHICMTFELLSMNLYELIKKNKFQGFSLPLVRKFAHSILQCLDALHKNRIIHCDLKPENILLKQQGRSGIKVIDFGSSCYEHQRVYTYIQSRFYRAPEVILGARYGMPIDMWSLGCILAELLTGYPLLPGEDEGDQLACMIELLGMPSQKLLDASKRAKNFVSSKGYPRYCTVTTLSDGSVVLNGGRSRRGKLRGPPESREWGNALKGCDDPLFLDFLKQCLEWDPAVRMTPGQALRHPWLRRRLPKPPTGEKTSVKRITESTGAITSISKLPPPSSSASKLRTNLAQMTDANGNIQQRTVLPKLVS
The experiment can be described thus: Inhibition of human DYRK2 at 1.82 nM by HotSpot assay relative to control.

Sequence of Receptor tyrosine-protein kinase erbB-4 (Homo sapiens) (Q15303 whole entry): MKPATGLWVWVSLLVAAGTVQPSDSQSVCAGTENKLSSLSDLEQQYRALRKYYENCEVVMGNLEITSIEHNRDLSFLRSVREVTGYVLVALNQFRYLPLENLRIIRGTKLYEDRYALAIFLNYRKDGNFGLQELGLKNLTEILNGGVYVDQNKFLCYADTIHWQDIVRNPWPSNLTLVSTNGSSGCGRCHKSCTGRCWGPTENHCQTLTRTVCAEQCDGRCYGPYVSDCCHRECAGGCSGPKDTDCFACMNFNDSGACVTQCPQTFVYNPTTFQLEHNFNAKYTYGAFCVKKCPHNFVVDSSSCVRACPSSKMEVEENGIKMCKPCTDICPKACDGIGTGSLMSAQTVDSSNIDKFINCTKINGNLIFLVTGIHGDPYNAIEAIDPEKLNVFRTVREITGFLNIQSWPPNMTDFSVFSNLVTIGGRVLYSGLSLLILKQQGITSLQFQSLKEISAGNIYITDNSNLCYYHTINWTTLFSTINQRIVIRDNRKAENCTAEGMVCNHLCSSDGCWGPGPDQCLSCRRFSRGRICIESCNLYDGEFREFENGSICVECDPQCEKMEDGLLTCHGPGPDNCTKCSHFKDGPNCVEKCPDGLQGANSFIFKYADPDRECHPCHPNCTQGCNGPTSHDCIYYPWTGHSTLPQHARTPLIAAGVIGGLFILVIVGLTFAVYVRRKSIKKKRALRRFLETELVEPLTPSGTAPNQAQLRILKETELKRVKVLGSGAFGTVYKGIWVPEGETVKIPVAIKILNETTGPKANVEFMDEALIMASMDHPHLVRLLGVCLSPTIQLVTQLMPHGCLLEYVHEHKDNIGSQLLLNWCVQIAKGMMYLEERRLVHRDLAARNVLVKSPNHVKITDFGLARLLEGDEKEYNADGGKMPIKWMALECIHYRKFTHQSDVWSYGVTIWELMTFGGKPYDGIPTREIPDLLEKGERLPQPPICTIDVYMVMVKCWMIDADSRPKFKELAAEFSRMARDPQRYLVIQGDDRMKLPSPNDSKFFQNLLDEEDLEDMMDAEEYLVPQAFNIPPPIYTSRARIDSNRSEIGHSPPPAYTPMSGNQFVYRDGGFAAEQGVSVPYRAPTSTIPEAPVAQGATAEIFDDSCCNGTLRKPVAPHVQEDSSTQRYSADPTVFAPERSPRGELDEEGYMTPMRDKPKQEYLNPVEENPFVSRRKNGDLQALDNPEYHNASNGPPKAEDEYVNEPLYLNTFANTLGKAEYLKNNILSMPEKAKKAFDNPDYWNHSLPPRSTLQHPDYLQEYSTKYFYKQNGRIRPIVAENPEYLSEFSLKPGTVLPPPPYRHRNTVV

On to `C[C@]1(O)C[C@@H](c2nc(-c3ccc4ccc(-c5ccccc5)nc4c3)c3c(N)nccn32)C1`, for which the inhibition is -0.35% in experiment [1] and 5.49% in experiment [2].
Regarding `C[C@@]1(C(=O)Nc2ccc(F)nc2)CCCN1c1nc(Nc2cc(C3CC3)n[nH]2)c2cccn2n1`, the inhibition in experiment [3] is 3.49%; in experiment [4] it was -1.99%; in experiment [5], 0%.
